According to PMC11905058, “Novel Leech Antimicrobial Peptides, Hirunipins: Real‐Time 3D Monitoring of Antimicrobial and Antibiofilm Mechanisms Using Optical Diffraction Tomography” (Advanced Science, 2025):
Where two headings read alike, the source gives them in different places. Residues, ends and D or L forms follow the SMILES beside them. No end group written: not given here.

What was measured:
Format in all cases: cell-based
[1] = tested on: Escherichia coli [KCTC 1682]
Procedure: (§1) The MICs of the peptides were measured by the Clinical and Laboratory Standards Institute (CLSI) broth microdilution method, as outlined in a previous study.^[ [26], [27] ^]
(§2) Minimal Inhibitory Concentrations (MICs): Bacteria were grown to mid-logarithmic phase and diluted in Mueller-Hinton broth (MHB) (Difco). The bacterial suspension (1×10^6 CFU/well) was added to a 96-well microtiter plate along with a two-fold serial dilution of samples. The plate was incubated at 37 °C for 24 hours and the bacterial growth inhibition was assessed by measuring the optical density using an ELISA plate reader. The minimum inhibitory concentration (MIC) was defined as the lowest concentration of samples that prevented visible bacterial growth.

[2] = tested on: Pseudomonas aeruginosa [KCTC 1637]
Procedure: as §1, §2

[3] = tested on: Staphylococcus aureus [KCTC1621]
Procedure: as §1, §2

[4] = tested on: Staphylococcus epidermidis [KCTC 1917]
Procedure: as §1, §2

[5] = CLSI broth microdilution in MHB, 1×10^6 CFU/well, 37 °C, 24 h, optical density

CC(C)C[C@H](NC(=O)[C@H](CS)NC(=O)[C@@H](NC(=O)CNC(=O)[C@H](CC(=O)O)NC(=O)[C@H](CCC(=O)O)NC(=O)[C@H](CCCCN)NC(=O)[C@H](CCCCN)NC(=O)[C@H](CS)NC(=O)[C@@H](NC(=O)[C@H](CCCNC(=N)N)NC(=O)[C@H](CCCNC(=N)N)NC(=O)[C@@H](N)CCCNC(=N)N)[C@@H](C)O)[C@@H](C)O)C(=O)NCC(=O)N[C@@H](CCCNC(=N)N)C(=O)N[C@@H](CCCCN)C(=O)N[C@H](C(=O)N[C@@H](CCC(N)=O)C(=O)N[C@@H](Cc1ccc(O)cc1)C(=O)N[C@@H](CCCCN)C(=O)N[C@@H](CCCCN)C(=O)N[C@@H](Cc1ccc(O)cc1)C(=O)N[C@@H](CC(C)C)C(=O)N[C@@H](CCC(N)=O)C(=O)N[C@@H](CCCCN)C(=O)N[C@@H](CCCCN)C(N)=O)C(C)C [LP3] (H-RRRTCKKEDGTCLGRKVQYKKYLQKK-NH2; N-terminus and C-terminus assumed)
>128 µg/mL: Minimum inhibitory concentration (MIC), Escherichia coli [KCTC 1682] ([1]; KCTC 1682, 24 h) | Minimum inhibitory concentration (MIC), Pseudomonas aeruginosa [KCTC 1637] ([2]; KCTC 1637, 24 h) | Minimum inhibitory concentration (MIC), Staphylococcus aureus [KCTC1621] ([3]; KCTC1621, 24 h) | Minimum inhibitory concentration (MIC), Staphylococcus epidermidis [KCTC 1917] ([4]; KCTC 1917, 24 h)

CC(C)C[C@H](NC(=O)[C@H](Cc1ccc(O)cc1)NC(=O)[C@H](CCCCN)NC(=O)[C@H](CCCNC(=N)N)NC(=O)[C@H](CCCNC(=N)N)NC(=O)[C@H](CCC(N)=O)NC(=O)[C@@H](NC(=O)[C@H](CC(N)=O)NC(=O)[C@H](CCCNC(=N)N)NC(=O)CNC(=O)[C@@H](NC(=O)[C@H](CS)NC(=O)[C@@H]1CCCN1C(=O)[C@H](CCCCN)NC(=O)[C@H](CO)NC(=O)[C@H](CC(N)=O)NC(=O)[C@H](CC(C)C)NC(=O)[C@H](CCCCN)NC(=O)[C@H](CS)NC(=O)[C@H](CCC(N)=O)NC(=O)[C@H](CCCNC(=N)N)NC(=O)[C@H](CCC(=O)O)NC(=O)[C@H](CCCNC(=N)N)NC(=O)[C@@H](NC(=O)[C@H](Cc1c[nH]c2ccccc12)NC(=O)[C@H](Cc1ccc(O)cc1)NC(=O)CNC(=O)[C@@H](NC(=O)[C@@H](NC(=O)[C@H](CC(=O)O)NC(=O)[C@@H](N)CCCCN)C(C)C)[C@@H](C)O)C(C)C)C(C)C)[C@@H](C)O)C(=O)N[C@@H](CC(N)=O)C(=O)N[C@@H](CCCCN)C(N)=O [LP4] (H-KDVTGYWVRERQCKLNSKPCVGRNTQRRKYLNK-NH2; N-terminus and C-terminus assumed)
>128 µg/mL: Minimum inhibitory concentration (MIC), Escherichia coli [KCTC 1682] ([1]; KCTC 1682, 24 h) | Minimum inhibitory concentration (MIC), Pseudomonas aeruginosa [KCTC 1637] ([2]; KCTC 1637, 24 h) | Minimum inhibitory concentration (MIC), Staphylococcus aureus [KCTC1621] ([3]; KCTC1621, 24 h) | Minimum inhibitory concentration (MIC), Staphylococcus epidermidis [KCTC 1917] ([4]; KCTC 1917, 24 h)

CC[C@H](C)[C@H](NC(=O)[C@H](CO)NC(=O)[C@H](CCCNC(=N)N)NC(=O)[C@H](C)N)C(=O)N[C@@H](CCCCN)C(=O)N[C@@H](CCCCN)C(=O)N[C@H](C(=O)N[C@H](C(=O)N[C@@H](Cc1ccccc1)C(=O)N[C@@H](CO)C(=O)N[C@@H](CO)C(=O)N[C@@H](CO)C(=O)N[C@@H](CO)C(=O)N[C@@H](CCCNC(=N)N)C(=O)N[C@H](C(=O)N[C@@H](CS)C(=O)N1CCC[C@H]1C(=O)N1CCC[C@H]1C(=O)N[C@@H](CC(C)C)C(=O)N[C@@H](CCCCN)C(=O)N[C@@H](CCSC)C(=O)N[C@@H](CC(C)C)C(=O)N[C@@H](CCCCN)C(=O)N[C@@H](CC(C)C)C(=O)N[C@@H](CCCNC(=N)N)C(=O)N1CCC[C@H]1C(=O)N[C@@H](CS)C(=O)N[C@@H](Cc1ccccc1)C(=O)N[C@@H](CCCCN)C(=O)N[C@@H](CCCCN)C(=O)N[C@H](C(=O)N1CCC[C@H]1C(=O)N[C@@H](CCCCN)C(=O)N[C@@H](CC(C)C)C(=O)N[C@@H](CC(=O)O)C(=O)NCC(=O)N[C@@H](CCC(N)=O)C(=O)O)C(C)C)C(C)C)[C@@H](C)CC)C(C)C [LP15] (H-ARSIKKVIFSSSSRVCPPLKMLKLRPCFKKVPKLDGQ-OH; N-terminus and C-terminus assumed)
>128 µg/mL: Minimum inhibitory concentration (MIC), Escherichia coli [KCTC 1682] ([1]; KCTC 1682, 24 h) | Minimum inhibitory concentration (MIC), Pseudomonas aeruginosa [KCTC 1637] ([2]; KCTC 1637, 24 h) | Minimum inhibitory concentration (MIC), Staphylococcus aureus [KCTC1621] ([3]; KCTC1621, 24 h) | Minimum inhibitory concentration (MIC), Staphylococcus epidermidis [KCTC 1917] ([4]; KCTC 1917, 24 h)

CC[C@H](C)[C@H](NC(=O)[C@@H]1CCCN1C(=O)[C@H](Cc1ccccc1)NC(=O)[C@H](CCC(N)=O)NC(=O)[C@H](CO)NC(=O)[C@H](CCCNC(=N)N)NC(=O)[C@@H](N)Cc1ccccc1)C(=O)N[C@@H](CS)C(=O)N[C@@H](CCCCN)C(=O)N[C@@H](CC(N)=O)C(=O)N[C@@H](CC(C)C)C(=O)N[C@H](C(=O)N[C@@H](CC(N)=O)C(=O)N[C@@H](Cc1c[nH]cn1)C(=O)N[C@H](C(=O)N[C@@H](CCCCN)C(=O)N[C@@H](Cc1ccccc1)C(=O)N[C@H](C(=O)N[C@@H](CS)C(=O)N[C@@H](CCC(N)=O)C(=O)N[C@@H](CCCCN)C(=O)N[C@@H](CCCCN)C(=O)N1CCC[C@H]1C(=O)N[C@@H](CC(C)C)C(=O)N[C@@H](CO)C(=O)N[C@@H](CCCCN)C(=O)N[C@@H](CC(C)C)C(=O)N[C@@H](CCSC)C(=O)N[C@@H](CCCCN)C(=O)N[C@@H](CS)C(=O)N[C@@H](CCCCN)C(=O)N[C@@H](CCCCN)C(=O)N[C@@H](C)C(=O)N[C@@H](CC(C)C)C(=O)N[C@@H](CC(=O)O)C(=O)N[C@@H](CCCNC(=N)N)C(=O)O)C(C)C)[C@@H](C)O)C(C)C [LP16] (H-FRSQFPICKNLVNHTKFVCQKKPLSKLMKCKKALDR-OH)
>128 µg/mL: Minimum inhibitory concentration (MIC), Escherichia coli [KCTC 1682] ([1]; KCTC 1682, 24 h) | Minimum inhibitory concentration (MIC), Pseudomonas aeruginosa [KCTC 1637] ([2]; KCTC 1637, 24 h) | Minimum inhibitory concentration (MIC), Staphylococcus aureus [KCTC1621] ([3]; KCTC1621, 24 h) | Minimum inhibitory concentration (MIC), Staphylococcus epidermidis [KCTC 1917] ([4]; KCTC 1917, 24 h)

FGQKVNCILNFICYKYLRI LV [LP2, putative AMP predicted from the Hirudo nipponia transcriptome]
>128 µg/mL: Minimum inhibitory concentration (MIC), Escherichia coli [KCTC 1682] [1, 5] | Minimum inhibitory concentration (MIC), Pseudomonas aeruginosa [KCTC 1637] [2, 5] | Minimum inhibitory concentration (MIC), Staphylococcus aureus [KCTC1621] [3, 5] | Minimum inhibitory concentration (MIC), Staphylococcus epidermidis [KCTC 1917] [4, 5]

IIIIKMHKTRKEKTQSILSAPVGLLTTL [LP7]
>128 µg/mL: Minimum inhibitory concentration (MIC), Escherichia coli [KCTC 1682] ([1]; KCTC 1682, 24 h) | Minimum inhibitory concentration (MIC), Pseudomonas aeruginosa [KCTC 1637] ([2]; KCTC 1637, 24 h) | Minimum inhibitory concentration (MIC), Staphylococcus aureus [KCTC1621] ([3]; KCTC1621, 24 h) | Minimum inhibitory concentration (MIC), Staphylococcus epidermidis [KCTC 1917] ([4]; KCTC 1917, 24 h)

KKLLKKLEKISKKKKKDKKRGRGSPMTSYAILYDGA [LP10]
>128 µg/mL: Minimum inhibitory concentration (MIC), Escherichia coli [KCTC 1682] ([1]; KCTC 1682, 24 h) | Minimum inhibitory concentration (MIC), Pseudomonas aeruginosa [KCTC 1637] ([2]; KCTC 1637, 24 h) | Minimum inhibitory concentration (MIC), Staphylococcus aureus [KCTC1621] ([3]; KCTC1621, 24 h) | Minimum inhibitory concentration (MIC), Staphylococcus epidermidis [KCTC 1917] ([4]; KCTC 1917, 24 h)

KLTPKPAKKVKKVVKF [LP1]
>128 µg/mL: Minimum inhibitory concentration (MIC), Escherichia coli [KCTC 1682] ([1]; KCTC 1682, 24 h) | Minimum inhibitory concentration (MIC), Pseudomonas aeruginosa [KCTC 1637] ([2]; KCTC 1637, 24 h) | Minimum inhibitory concentration (MIC), Staphylococcus aureus [KCTC1621] ([3]; KCTC1621, 24 h) | Minimum inhibitory concentration (MIC), Staphylococcus epidermidis [KCTC 1917] ([4]; KCTC 1917, 24 h)
